Laboratory results reported in patent publication US20200255844A1, “MULTIPLEXED RECEPTOR-LIGAND INTERACTION SCREENS” (THE REGENTS OF THE UNIVERSITY OF CALIFORNIA, priority 2017, published 2020).
Structures can show the parent of a compound that is named as a salt.

Experiments:
Assay type in all cases: cell-based, mouse
[1] = system: MOR133-1; assay: High-throughput multiplexed odorant screening (Smell-seq), barcode RNA-seq readout; conditions: OR MOR133-1; pair called as hit, FDR=1%
Description: (§1) We subsequently screened 182 odorants at three concentrations in triplicate against the OR cell library, the equivalent of ˜85,000 individual luciferase assays including controls (FIG. 10A, Table 2). Each 96-well plate in the assay contained positive control odorants and solvent DMSO wells for normalization (FIG. 16). We used the EdgeR software package to determine differentially responsive ORs based on a negative binomial model of barcode counts. We found 114 OR-odorant interactions (out of 7,200 possible), 81 of which are novel, and 24 interactions with 15 orphan receptors (FIG. 10C, FIG. 17 and Supplementary Table 4) (FDR=1%; Benjamini-Hochberg correction). Overall 28 of 39 receptors were activated by at least one odorant, and 68 of 182 odorants activated at least one OR (Table 4). We chose 37 interactions of at least 1.2 fold induction to test individually with a previously developed transient OR assay that has several important differences (FIG. 18). Of the 28 interactions called as hits at an FDR of 1%, 21 of them replicated in this orthogonal system (FIG. 17). […] Conversely, we also detect 14 interactions that this previous study tested, but called negative.

[2] = system: MOR13-1; assay: High-throughput multiplexed odorant screening (Smell-seq), 96-well, barcode RNA-seq readout; conditions: OR MOR13-1; pair called as hit, FDR=1%
Description: We find that chemicals with similar features activate similar sets of ORs, including those receptors we deorphanize in this study. For example, the previously orphan MOR13-1 is activated by four chemicals with polar groups attached, in three cases, to stiff non-rotatable scaffolds. Another example is, MOR19-1, which has clear affinity for the salicylate functional group. To better understand how chemical similarity relates to receptor activation without relying on incomplete and sometimes arbitrary chemical descriptors, we used a previously validated computational autoencoder to represent each chemical in a ˜292 dimensional latent space, allowing nearly lossless compression of chemical structure (Data not shown). We find chemicals that activate the same OR tend to cluster distinctly (FIG. 10D, FIG. 20). […] Many, but not all of the receptors. […] Understanding the space of chemicals that activates each OR establishes the groundwork for prediction of novel odorant-OR interactions.
(§2) 10. High-Throughput Odorant Screening
(§3) The OR library cell line was thawed from a liquid nitrogen frozen stock into a T-225 flask (Corning) three days before seeding into a 96-well plate for screening. The library was seeded at 6,666 cells per well in 100 ul of DMEM. 24 hours later a working concentration of 1 ug/ml of doxycycline in DMEM was added to the wells. 24 hours after induction, the media was removed from each plate and replaced with 25 ul of odorant diluted in OptiMEM. Each odor was added at three different concentrations (10 uM, 100 uM, 1 mM) in triplicate with the same amount of final DMSO (1%). Each plate contained two control odorants at a three concentration (10 uM, 100 uM, 1 mM) in triplicate and three wells containing 1% DMSO dissolved in media. The library was incubated with odorants for three hours in a cell culture incubator with the lids removed.
After odor incubation, media was pipetted out of the plates and cells were lysed by adding 25 uL of ice-cold Cells-to-cDNA II Lysis Buffer (Thermo Fisher) and pipetting up and down to homogenize and lyse cells. The lysate was then heated to 75° C. for 15 minutes and flash frozen with liquid nitrogen and kept at −80 C until further processing. Then 0.5 uL DNase I (New England Biolabs) was added to lysate, and incubated at 37° C. for 15 minutes. […]
For each batch, qPCR was performed on a few wells (OL005F and OL013) with SYBR FAST qPCR Mastermix to determine the number of cycles necessary for PCR based library preparation. […] Library concentrations were quantified using a Tape Station 2200 and a Qubit (Thermo Fisher). The libraries were sequenced with two index reads and a single end 75-bp read on a NextSeq 500 in high-output mode (Illumina). […]

[3] = system: Olfr62; assay: High-throughput multiplexed odorant screening (Smell-seq), barcode RNA-seq readout; conditions: OR Olfr62; pair called as hit, FDR=1%
Description: as §1

[4] = system: MOR112-1; assay: as above; conditions: OR MOR112-1; pair called as hit, FDR=1%
Description: as §1

[5] = system: MOR142-1; assay: as above; conditions: OR MOR142-1; pair called as hit, FDR=1%
Description: as §1

[6] = system: MOR119-1; assay: as above; conditions: OR MOR119-1; pair called as hit, FDR=1%
Description: as §1

[7] = system: MOR4-1; assay: as above; conditions: OR MOR4-1; pair called as hit, FDR=1%
Description: as §1

[8] = system: MOR23-1; assay: as above; conditions: OR MOR23-1; pair called as hit, FDR=1%
Description: as §1

[9] = system: MOR5-1; assay: High-throughput multiplexed odorant screening (Smell-seq), 96-well, barcode RNA-seq readout; conditions: OR MOR5-1; pair called as hit, FDR=1%
Procedure: as §2, §3
(§4) After odor incubation, media was pipetted out of the plates and cells were lysed by adding 25 uL of ice-cold Cells-to-cDNA II Lysis Buffer (Thermo Fisher) and pipetting up and down to homogenize and lyse cells. The lysate was then heated to 75° C. for 15 minutes and flash frozen with liquid nitrogen and kept at −80 C until further processing. Then 0.5 uL DNase I (New England Biolabs) was added to lysate, and incubated at 37° C. for 15 minutes. To anneal the RT primer, 5 ul of lysate from each well was combined with 2.5 ul of 10 mM dNTPs (New England Biosciences), 1 ul of 2 uM gene specific RT primer (OL003), and 1.5 ul of H2O. The reaction was heated to 65° C. for 5 min and cooled back down to 0° C. After annealing, 1 ul of M-MuLV Reverse Transcriptase (Enzymatics), 1 ul of buffer, and 0.25 ul of RNase Inhibitor (Enzymatics) were added to each reaction. Reactions were incubated at 42° C. for 60 min and the RT enzyme was heat inactivated at 85° C. for 10 min.
(§5) For each batch, qPCR was performed on a few wells (OL005F and OL013) with SYBR FAST qPCR Mastermix to determine the number of cycles necessary for PCR based library preparation. The reaction and cycling conditions are optimized as follows: 95° C. for 3 minutes, 40 cycles of 95° C. for 3 seconds and 60° C. for 20 seconds. After qPCR, 5 ul of each RT reaction was combined with 0.4 ul of 10 uM primers containing sequencing adaptors (OL005F and OL013), 10 ul of NEB-Next Q5 Mastermix (New England Biosciences) and 4.2 ul H2O, the PCR was carried out according to the manufacturer's protocol. The forward primer contains the P7 adaptor sequence and an index identifying the well in the assay and the reverse primer contains the P5 adaptor sequence and an index identifying the plate in the assay. PCR products were pooled together by plate and purified with the DNA Clean and Concentrator Kit. Library concentrations were quantified using a Tape Station 2200 and a Qubit (Thermo Fisher). The libraries were sequenced with two index reads and a single end 75-bp read on a NextSeq 500 in high-output mode (Illumina).
(§6) 11. Analysis of Next-Generation Sequencing Data
(§7) Samples were identified via indexing by their PCR indexes adapters unique for each well (5′ end) and unique for each plate (3′ end). The well barcodes followed the 7 bp indexing scheme in (Illumina Sequencing Library Preparation for Highly Multiplexed Target Capture and Sequencing Matthias Meyer, Martin Kircher, Cold Spring Harb Protoc; 2010; doi:10.1101/pdb.prot5448). The plate indexing scheme followed the Illumina indexing scheme. Sequencing data was demultiplexed and 15 bp barcode sequences were counted with only exact matches by custom python and bash scripts.
(§8) 12. Statistical Methods for Calling Hits
(§9) Count data was then analyzed using the differential expression package EdgeR. To filter out ORs with low representation, we set a cutoff that an OR had to contain at least 0.5% of the reads from more than 399 of the 1954 test samples. This filtered out 3 of 42 ORs which were underrepresented in the cell library (MOR172-1, MOR176-1 and MOR181-1). […]

[10] = system: MOR158-1; assay: High-throughput multiplexed odorant screening (Smell-seq), barcode RNA-seq readout; conditions: OR MOR158-1; pair called as hit, FDR=1%
Description: as §1

[11] = system: MOR120-1; assay: as above; conditions: OR MOR120-1; pair called as hit, FDR=1%
Description: as §1

[12] = system: MOR165-1; assay: as above; conditions: OR MOR165-1; pair called as hit, FDR=1%
Description: as §1

[13] = system: MOR203-1; assay: as above; conditions: OR MOR203-1; pair called as hit, FDR=1%
Description: as §1

[14] = system: MOR170-1; assay: High-throughput multiplexed odorant screening (Smell-seq), 96-well, barcode RNA-seq readout; conditions: OR MOR170-1; pair called as hit, FDR=1%
Procedure: as §2, §3, §4, §5, §6, §7, §8, §9

[15] = system: MOR19-1; assay: Odorant-receptor activation luciferase assay (transient), orthogonal follow-up; conditions: interactions called as hits at an FDR of 1% tested individually
Description: We subsequently screened 182 odorants at three concentrations in triplicate against the OR cell library, the equivalent of ˜85,000 individual luciferase assays including controls (FIG. 10A, Table 2). Each 96-well plate in the assay contained positive control odorants and solvent DMSO wells for normalization (FIG. 16). We used the EdgeR software package to determine differentially responsive ORs based on a negative binomial model of barcode counts. We found 114 OR-odorant interactions (out of 7,200 possible), 81 of which are novel, and 24 interactions with 15 orphan receptors (FIG. 10C, FIG. 17 and Supplementary Table 4) (FDR=1%; Benjamini-Hochberg correction). Overall 28 of 39 receptors were activated by at least one odorant, and 68 of 182 odorants activated at least one OR (Table 4). We chose 37 interactions of at least 1.2 fold induction to test individually with a previously developed transient OR assay that has several important differences (FIG. 18). […]
The Dual-Glo Luciferase Assay System (Promega) was used to measure OR-odorant responses as previously described (Zhuang and Matsunami 2008). […] Luminescence was measured using the M1000 plate reader (Tecan). All luminescence values were normalized to Renilla luciferase activity to control for transfection efficiency in a given well. Data were analyzed with Microsoft Excel and R.

[16] = system: MOR19-1; assay: High-throughput multiplexed odorant screening (Smell-seq), 96-well, barcode RNA-seq readout; conditions: for OR-odorant interaction called as hit in the multiplexed screen: MOR19-1, odorant at 10 uM, 100 uM, 1 mM in triplicate, 3 hours, FDR=1% (Benjamini-Hochberg); for Minimum Activating Concentration: OR MOR 19-1, pair called as hit, FDR=1%
Description: as §1, §2, §3
as §4, with “After annealing, 1 ul of M-MuLV Reverse Transcriptase (Enzymatics), 1 ul of buffer, and 0.25 ul of RNase Inhibitor (Enzymatics) were added to each reaction. Reactions were incubated at 42° C. for 60 min and the RT enzyme was heat inactivated at 85° C. for 10 min.” left out

[17] = system: MOR9-1; assay: High-throughput multiplexed odorant screening (Smell-seq), barcode RNA-seq readout; conditions: OR MOR9-1; pair called as hit, FDR=1%
Description: as §1

[18] = system: MOR131-1; assay: as above; conditions: OR MOR131-1; pair called as hit, FDR=1%
Description: as §1

[19] = system: MOR139-1; assay: as above; conditions: OR MOR139-1; pair called as hit, FDR=1%
Description: as §1

In the case of `CCCCCC(=O)CC` [3-Octanone], the “Minimum Activating Concentration” value [1] is reported as 1000 µM.
`O=Cc1ccccc1` [Benzaldehyde] was tested, and the “Minimum Activating Concentration” value [2] was 1000 µM, the “Minimum Activating Concentration” value [3] was 1000 µM and the “Minimum Activating Concentration” value [4] was 1000 µM.
In the case of `Cc1occc1SSc1ccoc1C` [Bis(2-methyl-3-furyl)disulphide)], the “Minimum Activating Concentration” value [5] is reported as 1000 µM.
For `CSSCc1ccco1` [Furfuryl methyl disulfide], the “Minimum Activating Concentration” value [6] was 1000 µM.
`CCCCCC(=O)O` [Hexanoic Acid] was tested, and the “Minimum Activating Concentration” value [7] was 1000 µM, the “Minimum Activating Concentration” value [8] was 1000 µM and the “Minimum Activating Concentration” value [9] was 1000 µM.
With `CC(=O)C1(C)CC2=C(CCCC2(C)C)CC1C` (stereo not shown) [Iso E Super] the “Minimum Activating Concentration” value [10] was 1000 µM.
In the case of `CC(C)(O)CCCC1=CCC(C=O)CC1` (stereo not shown) [Lyral], the “Minimum Activating Concentration” value [11] is reported as 1000 µM.
In the case of `CCCCCCCCCS` [Nonanethiol], the “Minimum Activating Concentration” value [11] is reported as 1000 µM.
With `CCCCCCCCOC=O` [Octyl formate] the “Minimum Activating Concentration” value [12] was 1000 µM.
With `CCCCC(=O)O` [Pentanoic Acid] the “Minimum Activating Concentration” value [2] was 1000 µM and the “Minimum Activating Concentration” value [7] was 1000 µM.
`CC(=O)OCc1ccc2c(c1)OCO2` [Piperonyl acetate] was tested, and the “Minimum Activating Concentration” value [13] was 1000 µM and the “Minimum Activating Concentration” value [14] was 1000 µM.
With `O=C(OCc1ccccc1)c1ccccc1O` [benzyl salicylate] the “replication of the hit in the orthogonal transient OR luciferase assay” value [15] was “did not replicate”, the “OR-odorant interaction called as hit in the multiplexed screen” value [16] was “hits” and the “Minimum Activating Concentration” value [16] was 10 µM.
With `CC1COCc2cc3c(cc21)C(C)(C)C(C)C3(C)C` (stereo not shown) [galaxolide] the “Minimum Activating Concentration” value [17] was 1000 µM, the “Minimum Activating Concentration” value [18] was 1000 µM and the “Minimum Activating Concentration” value [4] was 100 µM.
For `CC(C=O)Cc1ccc2c(c1)OCO2` (stereo not shown) [helional], the “Minimum Activating Concentration” value [19] was 1000 µM, the “Minimum Activating Concentration” value [13] was 1000 µM and the “Minimum Activating Concentration” value [14] was 1000 µM.
With `COC(=O)c1ccccc1O` [methyl salicylate] the “replication of the hit in the orthogonal transient OR luciferase assay” value [15] was “did not replicate”, the “OR-odorant interaction called as hit in the multiplexed screen” value [16] was “hits” and the “Minimum Activating Concentration” value [16] was 1000 µM.
`CCCCCCCCCCOC(C)=O` [n-Decyl acetate] was tested, and the “Minimum Activating Concentration” value [6] was 100 µM.
In the case of decanedioic acid (sebacic acid), the “Minimum Activating Concentration” value [12] is reported as 1000 µM.
